According to US12590100B2, “Tetrahydro-spiroindoline-pyrrolopyrrole-triones inhibitors of the NRF2-β-TrCP interaction for use in the treatment of fatty liver disease” (Universidad Autonoma De Madrid, priority 2021, dated 2026):

Legend:
[1] = HPLC-MS detection of PHAR in liver after IP injection; type: in vivo, mouse; conditions: mice, single IP 50 mg/kg, 120 min
Procedure: FIG. 9. PHAR activates NRF2 and HO-1 in liver. A), UV and MS spectrum derived from the HPLC-MS analysis of PHAR dissolved in methanol for the identification of peaks associated with the compound. A blue rectangle surrounds the mass associated with PHAR. (B-D), the mice were treated with the vehicle (Tween-80+PBS, 1:13), 50 mg/kg of PHAR, or 50 mg/kg of SFN (saline) as a positive control by means of intraperitoneal (IP) injection for 2 hours. B), HPLC-MS UV and MS spectra derived from representative liver samples of both experimental groups used for determining PHAR levels in the liver 120 min after a single IP injection of 50 mg/kg. A blue rectangle surrounds the mass associated with PHAR. C), representative immunoblots showing NRF2, HO1, and LAMINB protein levels as the liver extract loading control. D), densitometric analysis of NRF2 protein levels of the representative immunoblots shown in (C), expressed as a ratio of NRF2/LAMINB. Statistical analysis was performed with one-way ANOVA followed by the Bonferroni test to compare inter-group differences. ***p<0.001 vs. vehicle. […] F), densitometric analysis of NRF2 and HO1 protein levels in the liver tissue of the representative immunoblots shown in (E), expressed as a ratio of NRF2/LAMINB or HO1/LAMINB levels. […]
Once the mechanism of action of PHAR was deciphered, the capacity thereof to induce NRF2 levels in a murine model was evaluated. […]

[2] = system: STAM mice (NAFLD); assay: STAM fatty liver model, treatment from NASH stage (week 8) to week 10; type: in vivo, mouse
Text: FIG. 13. PHAR slows fatty liver progression. The progressive damage of liver cells as a consequence of their metabolic alteration and chronic low-grade inflammation leads to their progression towards fibrosis and the consequent loss of liver function. The present invention makes it possible to treat patients diagnosed with fatty liver to prevent its progression towards more severe forms of liver disease such as fibrosis and cirrhosis. A) Scheme of the liver damage progression model. B) Representative spectra derived from MRI studies. At starting point (week 8; W8, NASH inflammation), mice subjected to the STAM protocol had fatty liver imitating the status of newly diagnosed patients. At this point, treatment with PHAR (50 mg/kg i.p; 5 days per week) began until week 10 (W10, fibrosis). C) standardized quantification of the amount of liver fat per mouse measured by MRI. Statistical analysis was performed using a two-way ANOVA followed by a Bonferroni test to compare the differences between treatments in control and STAM groups. **p<0.01. D) profiles of evolution of the amount of liver fat per mouse measured by MRI at week 8 (NASH) and week 10 (fibrosis). E) H&E histochemical analysis of mice treated with PHAR vs vehicle in control mice and in STAM mice together with oil red staining for determination of liver fat levels. F) levels of transcripts corresponding to the metabolism of fatty acids (Cpt1a, Scd1, Cd36 and Fasn). G) Levels of transcripts corresponding to pro-inflammatory cytokines (Tnf, Il6 and Infg) and anti-inflammatory (Il10 and Il4). For F and G, relative mRNA levels were determined by qRT-PCR and normalized by averaging Gapdh, Tbp, and β-actin. Statistical analysis was performed using a bidirectional ANOVA followed by a Bonferroni test to compare the differences between PHAR-treated mice vs vehicle-treated mice in the control and STAM models. *p<0.05; ***p<0.001.
After seeing the beneficial role of PHAR in the prevention of NASH, we analyzed its role in progression of liver damage. The progressive damage of hepatocytes is a consequence of their metabolic alteration and chronic low-grade inflammation and oxidative stress (FIG. 13A). We treated mice in the NASH stage (week 8), 5 days a week with an IP dose of 50 mg/kg PHAR until week 10. The analysis of fat accumulation was measured by MRI both at the initial point of treatment and at the end point (FIG. 13B). Vehicle-treated STAM mice underwent a progressive accumulation of lipids. […] Therefore, PHAR reduces low-grade chronic inflammation and liver fat accumulation.

[3] = system: NRF2; assay: NRF2 and HO-1 protein levels in mouse tissues after IP treatment; type: in vivo; conditions: C57BL/6 mice
Procedure: FIG. 9. PHAR activates NRF2 and HO-1 in liver. A), UV and MS spectrum derived from the HPLC-MS analysis of PHAR dissolved in methanol for the identification of peaks associated with the compound. A blue rectangle surrounds the mass associated with PHAR. (B-D), the mice were treated with the vehicle (Tween-80+PBS, 1:13), 50 mg/kg of PHAR, or 50 mg/kg of SFN (saline) as a positive control by means of intraperitoneal (IP) injection for 2 hours. B), HPLC-MS UV and MS spectra derived from representative liver samples of both experimental groups used for determining PHAR levels in the liver 120 min after a single IP injection of 50 mg/kg. A blue rectangle surrounds the mass associated with PHAR. C), representative immunoblots showing NRF2, HO1, and LAMINB protein levels as the liver extract loading control. D), densitometric analysis of NRF2 protein levels of the representative immunoblots shown in (C), expressed as a ratio of NRF2/LAMINB. Statistical analysis was performed with one-way ANOVA followed by the Bonferroni test to compare inter-group differences. ***p<0.001 vs. vehicle. E) and F), the mice were treated daily with vehicle (Tween-80+PBS, 1:13) or 50 mg/kg of PHAR by means of intraperitoneal injection for 5 days. E), representative immunoblots showing NRF2, HO1, and LAMINB protein levels as loading control in brain, liver and kidney. F), densitometric analysis of NRF2 and HO1 protein levels in the liver tissue of the representative immunoblots shown in (E), expressed as a ratio of NRF2/LAMINB or HO1/LAMINB levels. Statistical analysis was performed with a Student t test to compare inter-group differences. **p<0.01 vs. vehicle.
Once the mechanism of action of PHAR was deciphered, the capacity thereof to induce NRF2 levels in a murine model was evaluated. C57BL/6 mice received a single intraperitoneal (IP) injection of 50 mg/kg PHAR (Tween-80+PBS, 1:13) or 50 mg/kg of SFN (saline) as a positive control. The UV spectrum derived from the HPLC-MS study of the PHAR compound dissolved in methanol alone helped the identification of the peak associated with the compound for subsequent identification in the tissue analysis. […] Taking this as a reference point, liver tissue analysis was performed to check for the presence of PHAR therein.
For this reason, C57BL/6 mice were treated daily by IP route for 5 days with 50 mg/kg of vehicle or 50 mg/kg of PHAR.

[4] = STAM mice, week 8 to week 10, liver mRNA

## O=C1[C@@H]2[C@H](Cc3c[nH]c4ccccc34)N[C@]3(C(=O)Nc4ccc(Cl)cc43)[C@@H]2C(=O)N1c1ccc2c(c1)OCCO2 [PHAR]
[1]
  presence of PHAR in liver tissue (HPLC-MS): corresponded with the presence of the compound
[2]; STAM mice, week 8 to week 10, IP 50 mg/kg
  liver fat (oil red staining): protection against liver fat accumulation
[2]; STAM mice, week 8 to week 10, IP 50 mg/kg 5 days a week
  lipid accumulation in liver by MRI: significant protection against lipid accumulation
[2]; [4]
  expression of Cpt1a (lipid catabolism): increasing the expression of Cpt1a
  expression of Fasn (lipid synthesis): decrease in the expression of Fasn
  expression of anti-inflammatory cytokines: promotes an increase in anti-inflammatory cytokines
  expression of pro-inflammatory cytokines: attenuates the expression of pro-inflammatory cytokines
[2]; control and STAM mice, week 8 to week 10, IP 50 mg/kg
  liver histology (H&E): normal liver histology
[3]; IP 50 mg/kg daily for 5 days
  HO1 levels in kidney: not further increased
  NRF2 and HO1 levels in brain: not modified
[3]; IP 50 mg/kg daily for 5 days, 120 minutes after last administration
  NRF2 and HO-1 in liver: significant increase of NRF2 and HO-1 in liver
[3]; single IP 50 mg/kg, 120 min
  liver HO-1 levels: did not result in increased HO-1 levels
  liver NRF2 levels: significant NRF2 accumulation
